Holding throughout (assay type): functional, cell-based
One experiment relates to MDA-MB-231. The experiment in a line: Cytotoxicity against human MDA-MB-231 cells after 48 hrs by MTT assay. The note with it: MDA-MB-231, 48 h. A general note: Tetrazolium assays rely on reduction of a dye to a coloured formazan, in cell work by metabolically active cells.
The next experiment concerns DU-145. Briefly: Cytotoxicity against human DU145 cells after 48 hrs by MTT assay. The note with it: DU-145, 48 h.
The next experiment relates to A549. The experiment in a line: Cytotoxicity against human A549 cells after 48 hrs by MTT assay. The note with it: A549, 48 h.

SMILES strings stand for the structures.

Regarding `O=C1N(Cc2ccc3c(c2)OCO3)c2ccccc2C12c1c(-c3ccccc3)n[nH]c1Nc1[nH]c(=O)[nH]c(=O)c12` (stereo not given), the results for the IC50 in the experiment on MDA-MB-231, with DU-145 and in the experiment with A549 were 20.2 µM, 19.6 µM and 17.4 µM, respectively.
As to `O=C1N(Cc2ccc3c(c2)OCO3)c2ccc(Cl)cc2C12c1c(-c3ccccc3)n[nH]c1Nc1[nH]c(=O)[nH]c(=O)c12` (stereo not given), the IC50 (in general, the midpoint of a concentration-inhibition curve) with MDA-MB-231 amounted to 15.9 µM; in the experiment on DU-145, 24.4 µM; with A549, 26.3 µM.
Taken in the same sequence, the figures for `O=C1N(Cc2ccc3c(c2)OCO3)c2ccc(Br)cc2C12c1c(-c3ccccc3)n[nH]c1Nc1[nH]c(=O)[nH]c(=O)c12` (stereo not given) were 13.6 µM, 16.5 µM and 14.8 µM.
Taken in the same sequence, the figures for `COc1cc(CN2C(=O)C3(c4cc(Cl)ccc42)c2c(-c4ccccc4)n[nH]c2Nc2[nH]c(=O)[nH]c(=O)c23)cc(OC)c1OC` (stereo not given) were 39.8 µM, 32.6 µM and 31.3 µM.
For `COc1cc(CN2C(=O)C3(C4=C(COC4=O)Nc4[nH]nc(-c5ccccc5)c43)c3cc(Cl)ccc32)cc(OC)c1OC` (stereo not given), in that order: 19.4 µM, 20.5 µM and 19.9 µM.
Turning to `O=C1Nc2ccccc2C12c1c(-c3ccccc3)n[nH]c1Nc1[nH]c(=O)[nH]c(=O)c12` (stereo not given), the half-maximal inhibitory concentration (IC50) in the experiment with MDA-MB-231 was determined as 35.2 µM; in the experiment on DU-145, 18.3 µM; in the experiment with A549 it was 17.7 µM.
Regarding `O=C1Nc2ccc(F)cc2C12c1c(-c3ccccc3)n[nH]c1Nc1[nH]c(=O)[nH]c(=O)c12` (stereo not given), the figures for the IC50 in the experiment on MDA-MB-231, in the experiment on DU-145 and in the experiment on A549 were 75.2 µM, 42.3 µM and 25.2 µM, respectively.
Taken in the same sequence, the figures for `O=C1Nc2c(F)cccc2C12c1c(-c3ccccc3)n[nH]c1Nc1[nH]c(=O)[nH]c(=O)c12` (stereo not given) were 66.9 µM, 20.7 µM and 18.2 µM.
For `O=C1Nc2ccc(Cl)cc2C12c1c(-c3ccccc3)n[nH]c1Nc1[nH]c(=O)[nH]c(=O)c12` (stereo not given), in that order: 68.4 µM, 15.8 µM and 7.92 µM.
For `O=C1Nc2ccc(Br)cc2C12c1c(-c3ccccc3)n[nH]c1Nc1[nH]c(=O)[nH]c(=O)c12` (stereo not given), in that order: 48.2 µM, 30.5 µM and 21.6 µM.
For `O=C1Nc2ccc(I)cc2C12c1c(-c3ccccc3)n[nH]c1Nc1[nH]c(=O)[nH]c(=O)c12` (stereo not given), the IC50 in the experiment with MDA-MB-231 was 46.1 µM; with DU-145 it was 10.4 µM; in the experiment with A549, 12.5 µM.
On to `Cc1ccc2c(c1)C1(C(=O)N2)c2c(-c3ccccc3)n[nH]c2Nc2[nH]c(=O)[nH]c(=O)c21` (stereo not given), for which the IC50 in the experiment on MDA-MB-231 is 63.2 µM; in the experiment with DU-145, 9.63 µM; in the experiment on A549 it was 7.82 µM.
For `COc1ccc2c(c1)C1(C(=O)N2)c2c(-c3ccccc3)n[nH]c2Nc2[nH]c(=O)[nH]c(=O)c21` (stereo not given), in that order: 28.5 µM, 22.9 µM and 23.9 µM.
Taken in the same sequence, the figures for `O=C1Nc2ccc([N+](=O)[O-])cc2C12c1c(-c3ccccc3)n[nH]c1Nc1[nH]c(=O)[nH]c(=O)c12` (stereo not given) were 63.2 µM, 9.63 µM and 7.82 µM.
Consider `O=C1N(Cc2ccccc2)c2ccccc2C12c1c(-c3ccccc3)n[nH]c1Nc1[nH]c(=O)[nH]c(=O)c12` (stereo not given), for which the IC50 is 13.1 µM in the experiment with MDA-MB-231, 18.2 µM with DU-145 and 36.2 µM with A549.
Taken in the same sequence, the figures for `O=C1N(Cc2ccccc2)c2ccc(Cl)cc2C12c1c(-c3ccccc3)n[nH]c1Nc1[nH]c(=O)[nH]c(=O)c12` (stereo not given) were 12.6 µM, 20.4 µM and 19.9 µM.
Taken in the same sequence, the figures for `O=C1N(Cc2ccccc2)c2ccc(Br)cc2C12c1c(-c3ccccc3)n[nH]c1Nc1[nH]c(=O)[nH]c(=O)c12` (stereo not given) were 6.33 µM, 23.7 µM and 25.4 µM.
For `COc1ccc2c(c1)C1(C(=O)N2Cc2ccccc2)c2c(-c3ccccc3)n[nH]c2Nc2[nH]c(=O)[nH]c(=O)c21` (stereo not given), in that order: 14.5 µM, 21.6 µM and 16.8 µM.
As for `O=C1OCC2=C1C1(C(=O)Nc3ccccc31)c1c(-c3ccccc3)n[nH]c1N2` (stereo not given), the IC50 in the experiment with MDA-MB-231 is 48.9 µM; in the experiment with DU-145 it was 25.2 µM; in the experiment on A549, 13.5 µM.
For `O=C1OCC2=C1C1(C(=O)Nc3ccc(F)cc31)c1c(-c3ccccc3)n[nH]c1N2` (stereo not given), in that order: 34.6 µM, 28.5 µM and 25.2 µM.
Turning to `O=C1OCC2=C1C1(C(=O)Nc3c(F)cccc31)c1c(-c3ccccc3)n[nH]c1N2` (stereo not given), the values for the IC50 in the experiment on MDA-MB-231, in the experiment with DU-145 and with A549 were 52.3 µM, 37.3 µM and 37 µM, respectively.
Consider `O=C1OCC2=C1C1(C(=O)Nc3ccc(Cl)cc31)c1c(-c3ccccc3)n[nH]c1N2` (stereo not given), for which the IC50 in the experiment with MDA-MB-231 came out at 55.2 µM; in the experiment with DU-145, 41.2 µM; in the experiment on A549, 50.1 µM.
Turning to `O=C1OCC2=C1C1(C(=O)Nc3ccc(Br)cc31)c1c(-c3ccccc3)n[nH]c1N2` (stereo not given), the figures for the IC50 in the experiment with MDA-MB-231, in the experiment on DU-145 and with A549 were 25.1 µM, 20.5 µM and 31.6 µM, respectively.
For `O=C1OCC2=C1C1(C(=O)Nc3ccc(I)cc31)c1c(-c3ccccc3)n[nH]c1N2` (stereo not given), in that order: 19.8 µM, 21.6 µM and 32.8 µM.
For `Cc1ccc2c(c1)C1(C(=O)N2)C2=C(COC2=O)Nc2[nH]nc(-c3ccccc3)c21` (stereo not given), in that order: 62.1 µM, 12.9 µM and 15.8 µM.
With `COc1ccc2c(c1)C1(C(=O)N2)C2=C(COC2=O)Nc2[nH]nc(-c3ccccc3)c21` (stereo not given), the concentration for half-maximal inhibition (IC50) with MDA-MB-231 stood at 54.7 µM; in the experiment on DU-145 it was 43.6 µM; in the experiment with A549, 50.1 µM.
Turning to `O=C1OCC2=C1C1(C(=O)Nc3ccc([N+](=O)[O-])cc31)c1c(-c3ccccc3)n[nH]c1N2` (stereo not given), the IC50 in the experiment on MDA-MB-231 came out at 50.1 µM; with DU-145, 38.5 µM; with A549, 51.3 µM.
Turning to `O=C1OCC2=C1C1(C(=O)N(Cc3ccccc3)c3ccccc31)c1c(-c3ccccc3)n[nH]c1N2` (stereo not given), the half-maximal inhibitory concentration (IC50) in the experiment with MDA-MB-231 came to 31.7 µM; in the experiment with DU-145 it was 15.9 µM; with A549, 35.4 µM.
For `O=C1OCC2=C1C1(C(=O)N(Cc3ccccc3)c3ccc(Cl)cc31)c1c(-c3ccccc3)n[nH]c1N2` (stereo not given), in that order: 3.9 µM, 35.3 µM and 50.2 µM.
`O=C1OCC2=C1C1(C(=O)N(Cc3ccccc3)c3ccc(Br)cc31)c1c(-c3ccccc3)n[nH]c1N2` (stereo not given): the results for the IC50 in the experiment on MDA-MB-231, in the experiment with DU-145 and in the experiment with A549 were 12.5 µM, 8.46 µM and 15.8 µM, respectively.
Taken in the same sequence, the figures for `COc1ccc2c(c1)C1(C(=O)N2Cc2ccccc2)C2=C(COC2=O)Nc2[nH]nc(-c3ccccc3)c21` (stereo not given) were 5.12 µM, 15.2 µM and 14.5 µM.
For `O=C1OCC2=C1C1(C(=O)N(Cc3ccc4c(c3)OCO4)c3ccccc31)c1c(-c3ccccc3)n[nH]c1N2` (stereo not given), in that order: 10.1 µM, 11.7 µM and 41.2 µM.
For `O=C1OCC2=C1C1(C(=O)N(Cc3ccc4c(c3)OCO4)c3ccc(Cl)cc31)c1c(-c3ccccc3)n[nH]c1N2` (stereo not given), in that order: 0.35 µM, 15.2 µM and 19.9 µM.
Regarding `O=C1OCC2=C1C1(C(=O)N(Cc3ccc4c(c3)OCO4)c3ccc(Br)cc31)c1c(-c3ccccc3)n[nH]c1N2` (stereo not given), the IC50 in the experiment with MDA-MB-231 came to 1.92 µM; in the experiment on DU-145, 13.6 µM; in the experiment on A549 it was 63.4 µM.
Taken in the same sequence, the figures for `O=c1[nH]cc(F)c(=O)[nH]1` [FLUOROURACIL] were 5.82 µM, 6.37 µM and 7.51 µM.

(Values after ChEMBL document CHEMBL3399961, “Sulfamic acid promoted one-pot three-component synthesis and cytotoxic evaluation of spirooxindoles” (Bioorg Med Chem Lett, 2015).)
